Calls of active or inactive are those of the source.
What was measured:
[1] = target: T1, Sentrin-specific protease 6 (Homo sapiens, UniProt Q9GZR1); assay type: functional;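 also: Luminescence-based dose-response confirmatory assay of SENP6 inhibition, following up an ultra-high-throughput screen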
T1 sequence (Q9GZR1 whole entry): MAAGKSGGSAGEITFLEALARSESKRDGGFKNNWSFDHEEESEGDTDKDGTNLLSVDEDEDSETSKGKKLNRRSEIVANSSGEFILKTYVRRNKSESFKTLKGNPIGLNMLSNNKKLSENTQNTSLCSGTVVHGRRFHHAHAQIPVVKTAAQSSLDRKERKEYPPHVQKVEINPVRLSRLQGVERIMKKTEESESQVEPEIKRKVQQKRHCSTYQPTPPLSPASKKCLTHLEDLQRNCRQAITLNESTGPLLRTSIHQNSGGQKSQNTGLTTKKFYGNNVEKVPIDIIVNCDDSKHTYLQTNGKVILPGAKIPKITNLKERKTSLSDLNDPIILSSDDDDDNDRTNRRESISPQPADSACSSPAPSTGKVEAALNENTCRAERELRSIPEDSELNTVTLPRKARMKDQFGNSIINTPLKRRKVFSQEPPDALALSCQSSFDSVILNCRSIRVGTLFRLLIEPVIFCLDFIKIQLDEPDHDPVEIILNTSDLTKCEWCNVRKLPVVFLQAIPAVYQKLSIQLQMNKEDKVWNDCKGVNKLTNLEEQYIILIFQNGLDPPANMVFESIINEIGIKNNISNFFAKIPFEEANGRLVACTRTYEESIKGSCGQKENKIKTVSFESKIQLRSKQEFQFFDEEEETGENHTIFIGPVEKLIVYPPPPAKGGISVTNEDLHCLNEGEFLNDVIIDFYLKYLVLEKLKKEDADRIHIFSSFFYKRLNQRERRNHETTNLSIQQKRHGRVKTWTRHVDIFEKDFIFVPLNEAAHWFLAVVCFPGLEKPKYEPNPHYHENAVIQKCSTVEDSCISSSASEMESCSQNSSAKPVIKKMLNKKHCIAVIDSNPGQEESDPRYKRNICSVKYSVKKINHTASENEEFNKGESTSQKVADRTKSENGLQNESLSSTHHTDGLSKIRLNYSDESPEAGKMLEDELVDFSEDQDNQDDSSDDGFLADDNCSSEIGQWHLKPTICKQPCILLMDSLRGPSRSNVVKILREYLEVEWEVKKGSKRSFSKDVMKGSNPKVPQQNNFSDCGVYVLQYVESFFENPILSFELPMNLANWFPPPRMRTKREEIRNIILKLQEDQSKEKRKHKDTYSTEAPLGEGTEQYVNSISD

[2] = target: T2, Sentrin-specific protease 7 (Homo sapiens, UniProt Q9BQF6); assay type: functional;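 also: Luminescence-based dose-response confirmation of ultra-high-throughput screening hits, measuring inhibition of SENP7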
T2 sequence (Q9BQF6 whole entry): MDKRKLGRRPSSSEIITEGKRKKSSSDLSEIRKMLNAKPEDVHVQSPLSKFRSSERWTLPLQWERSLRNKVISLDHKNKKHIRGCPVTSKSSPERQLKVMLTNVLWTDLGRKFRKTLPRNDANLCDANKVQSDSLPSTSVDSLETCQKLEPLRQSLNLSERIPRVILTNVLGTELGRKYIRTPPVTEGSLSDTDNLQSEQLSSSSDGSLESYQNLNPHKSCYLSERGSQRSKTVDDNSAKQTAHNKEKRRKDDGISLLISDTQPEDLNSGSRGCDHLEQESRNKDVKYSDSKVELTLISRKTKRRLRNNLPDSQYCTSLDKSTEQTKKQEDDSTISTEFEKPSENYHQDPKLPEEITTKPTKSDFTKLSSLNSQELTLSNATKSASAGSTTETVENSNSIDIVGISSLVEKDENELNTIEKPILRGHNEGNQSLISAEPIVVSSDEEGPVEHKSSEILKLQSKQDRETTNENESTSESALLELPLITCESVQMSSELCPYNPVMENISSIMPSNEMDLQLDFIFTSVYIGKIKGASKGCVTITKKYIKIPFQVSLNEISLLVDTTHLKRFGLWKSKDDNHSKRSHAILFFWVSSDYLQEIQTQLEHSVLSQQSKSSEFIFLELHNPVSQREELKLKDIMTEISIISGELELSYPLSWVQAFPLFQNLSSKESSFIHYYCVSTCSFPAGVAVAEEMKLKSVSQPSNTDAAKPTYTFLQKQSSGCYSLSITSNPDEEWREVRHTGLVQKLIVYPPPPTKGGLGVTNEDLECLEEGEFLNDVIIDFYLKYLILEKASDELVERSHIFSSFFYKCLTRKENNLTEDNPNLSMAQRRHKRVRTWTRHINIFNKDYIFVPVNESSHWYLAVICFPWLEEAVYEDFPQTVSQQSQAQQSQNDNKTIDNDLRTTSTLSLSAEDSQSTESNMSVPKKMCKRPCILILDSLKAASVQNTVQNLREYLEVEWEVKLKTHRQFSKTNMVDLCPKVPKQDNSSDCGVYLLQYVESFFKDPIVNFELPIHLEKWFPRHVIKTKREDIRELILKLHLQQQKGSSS

[3] = target: T3, Caspase-3 (Homo sapiens, UniProt P42574); assay type: functional;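 also: Dose-response selectivity test against caspase-3 for candidate inhibitors of sentrin-specific proteases (SENPs)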
T3 sequence (P42574 whole entry): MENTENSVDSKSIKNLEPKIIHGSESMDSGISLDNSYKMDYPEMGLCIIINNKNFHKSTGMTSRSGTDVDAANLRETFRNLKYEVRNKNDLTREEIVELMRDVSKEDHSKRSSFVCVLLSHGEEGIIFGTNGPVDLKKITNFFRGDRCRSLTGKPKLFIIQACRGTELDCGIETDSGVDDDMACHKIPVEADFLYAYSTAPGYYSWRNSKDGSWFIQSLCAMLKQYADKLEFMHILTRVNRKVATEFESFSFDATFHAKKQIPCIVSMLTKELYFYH

[4] = HEp-2 cell cytotoxicity, dose response, cytotoxicity control for RSV inhibitor project, HTS (AID 2410); assay type: functional; details: human respiratory syncytial virus
[5] = target: FAD-linked sulfhydryl oxidase ALR (Homo sapiens, UniProt P55789); assay: inhibitors of human ALR sulfhydryl oxidase, dose response, biochemical, H2O2 detection, luminescence, cherry-pick (AID 493248)
Sequence of FAD-linked sulfhydryl oxidase ALR (P55789 whole entry): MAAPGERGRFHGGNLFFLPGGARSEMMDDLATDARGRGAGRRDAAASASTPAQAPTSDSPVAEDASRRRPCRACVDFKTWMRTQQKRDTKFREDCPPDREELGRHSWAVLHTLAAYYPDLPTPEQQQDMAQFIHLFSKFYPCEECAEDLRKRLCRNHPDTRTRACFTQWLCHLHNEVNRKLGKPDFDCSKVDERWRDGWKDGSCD

[6] = NIH-3T3 fibroblast cytotoxicity, dose response, cytotoxicity control, cell-based, fluorescence, Alamar Blue, secondary assay (AID 2327); assay type: functional;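 also: NIH-3T3 mouse fibroblasts cultured with fluconazole at 8 µg/mL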
[7] = C. albicans growth with fluconazole, confirmation, fluorescence, retest (AID 2467); assay type: functional, cell-based
[8] = target: T4, Sentrin-specific protease 8 (Homo sapiens, UniProt Q96LD8); assay type: functional;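 also: luminescence read-out of SENP8 inhibition, dose-response confirmation following an ultra-high-throughput screen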
T4 sequence (Q96LD8 whole entry): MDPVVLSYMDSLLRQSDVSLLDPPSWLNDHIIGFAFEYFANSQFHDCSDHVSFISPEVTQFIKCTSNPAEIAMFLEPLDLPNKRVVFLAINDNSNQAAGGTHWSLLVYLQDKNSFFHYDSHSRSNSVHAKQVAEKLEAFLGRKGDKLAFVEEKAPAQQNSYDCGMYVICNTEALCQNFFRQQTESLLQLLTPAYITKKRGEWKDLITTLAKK

[9] = tested on: HeLa; assay: HeLa cell cytotoxicity, dose response, cytotoxicity control for MITF activator project, CellTiter-Glo luminescence, cherry-pick samples (AID 540259); assay type: functional, cell-based; details: Homo sapiens
[10] = target: T5, Cysteine protease ATG4B (Homo sapiens, UniProt Q9Y4P1); assay type: functional;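 also: Fluorescence-based dose-response confirmation assay measuring inhibition of ATG4B activity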
T5 sequence (Q9Y4P1 whole entry): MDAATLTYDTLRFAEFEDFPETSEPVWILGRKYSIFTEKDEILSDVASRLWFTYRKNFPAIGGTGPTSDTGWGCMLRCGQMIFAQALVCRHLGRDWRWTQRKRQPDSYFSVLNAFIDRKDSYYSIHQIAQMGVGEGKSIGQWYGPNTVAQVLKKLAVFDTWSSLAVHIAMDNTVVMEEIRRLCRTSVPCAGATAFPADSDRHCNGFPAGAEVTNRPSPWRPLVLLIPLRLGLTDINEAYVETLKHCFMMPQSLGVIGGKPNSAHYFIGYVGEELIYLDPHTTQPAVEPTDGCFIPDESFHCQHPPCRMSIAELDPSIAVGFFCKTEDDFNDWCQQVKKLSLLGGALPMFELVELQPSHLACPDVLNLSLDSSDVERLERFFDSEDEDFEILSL

[11] = target: DNA (cytosine-5)-methyltransferase 1 (Homo sapiens, UniProt P26358); assay: DNMT1 methyltransferase inhibitors, confirmation, biochemical, fluorescent molecular beacon (AID 602386); assay type: functional
Sequence of DNA (cytosine-5)-methyltransferase 1 (P26358 whole entry): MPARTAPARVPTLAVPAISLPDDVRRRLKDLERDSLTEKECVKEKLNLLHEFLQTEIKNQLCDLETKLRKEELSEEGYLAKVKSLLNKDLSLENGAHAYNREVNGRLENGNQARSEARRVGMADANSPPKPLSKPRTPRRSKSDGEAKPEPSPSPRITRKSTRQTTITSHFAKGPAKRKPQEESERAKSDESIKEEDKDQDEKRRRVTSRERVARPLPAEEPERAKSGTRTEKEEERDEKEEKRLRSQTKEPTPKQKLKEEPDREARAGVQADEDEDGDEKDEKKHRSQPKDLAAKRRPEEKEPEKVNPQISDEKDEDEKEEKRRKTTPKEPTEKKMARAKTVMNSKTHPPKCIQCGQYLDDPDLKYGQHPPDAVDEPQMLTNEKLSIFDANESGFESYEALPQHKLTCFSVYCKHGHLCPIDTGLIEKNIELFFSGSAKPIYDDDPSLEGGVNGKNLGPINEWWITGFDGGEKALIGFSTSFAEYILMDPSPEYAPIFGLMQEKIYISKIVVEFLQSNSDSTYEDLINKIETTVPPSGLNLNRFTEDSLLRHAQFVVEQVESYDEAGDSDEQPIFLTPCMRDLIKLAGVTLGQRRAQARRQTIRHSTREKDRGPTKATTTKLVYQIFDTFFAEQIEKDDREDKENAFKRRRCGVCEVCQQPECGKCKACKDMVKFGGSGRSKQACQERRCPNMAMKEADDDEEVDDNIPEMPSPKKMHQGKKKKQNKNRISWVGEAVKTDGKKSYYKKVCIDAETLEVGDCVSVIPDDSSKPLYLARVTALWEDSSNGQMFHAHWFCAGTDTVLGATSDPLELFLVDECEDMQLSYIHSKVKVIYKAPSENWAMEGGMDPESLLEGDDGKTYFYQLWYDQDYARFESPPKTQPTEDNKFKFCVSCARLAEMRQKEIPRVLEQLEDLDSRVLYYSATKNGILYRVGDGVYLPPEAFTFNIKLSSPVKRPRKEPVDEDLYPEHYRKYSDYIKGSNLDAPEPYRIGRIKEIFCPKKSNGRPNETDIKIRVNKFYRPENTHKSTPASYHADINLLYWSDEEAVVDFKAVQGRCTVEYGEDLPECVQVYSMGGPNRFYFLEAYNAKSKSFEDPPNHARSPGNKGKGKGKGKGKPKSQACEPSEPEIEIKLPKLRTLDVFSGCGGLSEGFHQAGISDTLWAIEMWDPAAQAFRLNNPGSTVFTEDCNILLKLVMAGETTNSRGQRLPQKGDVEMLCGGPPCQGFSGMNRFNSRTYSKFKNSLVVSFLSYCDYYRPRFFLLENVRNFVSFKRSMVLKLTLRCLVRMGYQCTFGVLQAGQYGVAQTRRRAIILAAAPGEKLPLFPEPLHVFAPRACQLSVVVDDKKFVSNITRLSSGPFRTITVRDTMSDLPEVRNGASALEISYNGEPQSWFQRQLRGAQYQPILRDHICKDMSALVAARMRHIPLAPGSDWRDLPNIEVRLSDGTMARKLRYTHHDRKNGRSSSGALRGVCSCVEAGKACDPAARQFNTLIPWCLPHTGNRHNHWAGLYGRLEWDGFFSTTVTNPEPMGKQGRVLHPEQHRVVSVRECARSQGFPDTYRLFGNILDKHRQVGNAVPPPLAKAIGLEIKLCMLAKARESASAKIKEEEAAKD

[12] = target: Induced myeloid leukemia cell differentiation protein Mcl-1 (Homo sapiens, UniProt Q07820); assay type: functional
Sequence of Induced myeloid leukemia cell differentiation protein Mcl-1 (Q07820 whole entry): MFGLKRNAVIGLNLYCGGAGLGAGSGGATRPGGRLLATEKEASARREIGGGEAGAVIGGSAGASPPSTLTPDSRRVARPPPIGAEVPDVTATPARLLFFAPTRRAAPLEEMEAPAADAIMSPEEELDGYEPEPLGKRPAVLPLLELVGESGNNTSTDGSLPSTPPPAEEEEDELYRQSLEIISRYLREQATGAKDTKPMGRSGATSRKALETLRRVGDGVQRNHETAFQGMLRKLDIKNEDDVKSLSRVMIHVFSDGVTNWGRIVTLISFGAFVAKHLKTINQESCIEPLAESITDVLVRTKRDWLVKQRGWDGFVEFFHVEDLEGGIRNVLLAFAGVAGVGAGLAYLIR

[13] = target: T6, SUMO-activating enzyme (Homo sapiens, UniProt Q9UBT2); assay: inhibitors of in vitro SUMOylation cascade, primary screen, biochemical, HTRF, uHTS (AID 2006); assay type: protein-complex assay
T6 sequence (Q9UBE0 whole entry): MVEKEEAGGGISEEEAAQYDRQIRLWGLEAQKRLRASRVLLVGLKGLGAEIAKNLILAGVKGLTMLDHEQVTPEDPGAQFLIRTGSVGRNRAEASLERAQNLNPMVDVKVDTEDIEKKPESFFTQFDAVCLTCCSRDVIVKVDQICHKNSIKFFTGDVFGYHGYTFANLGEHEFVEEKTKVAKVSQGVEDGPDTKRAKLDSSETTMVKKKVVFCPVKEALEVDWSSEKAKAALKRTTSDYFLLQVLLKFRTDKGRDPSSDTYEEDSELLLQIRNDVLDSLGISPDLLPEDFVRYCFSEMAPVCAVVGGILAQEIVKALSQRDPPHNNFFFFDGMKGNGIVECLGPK
T6 sequence (Q9UBT2 whole entry): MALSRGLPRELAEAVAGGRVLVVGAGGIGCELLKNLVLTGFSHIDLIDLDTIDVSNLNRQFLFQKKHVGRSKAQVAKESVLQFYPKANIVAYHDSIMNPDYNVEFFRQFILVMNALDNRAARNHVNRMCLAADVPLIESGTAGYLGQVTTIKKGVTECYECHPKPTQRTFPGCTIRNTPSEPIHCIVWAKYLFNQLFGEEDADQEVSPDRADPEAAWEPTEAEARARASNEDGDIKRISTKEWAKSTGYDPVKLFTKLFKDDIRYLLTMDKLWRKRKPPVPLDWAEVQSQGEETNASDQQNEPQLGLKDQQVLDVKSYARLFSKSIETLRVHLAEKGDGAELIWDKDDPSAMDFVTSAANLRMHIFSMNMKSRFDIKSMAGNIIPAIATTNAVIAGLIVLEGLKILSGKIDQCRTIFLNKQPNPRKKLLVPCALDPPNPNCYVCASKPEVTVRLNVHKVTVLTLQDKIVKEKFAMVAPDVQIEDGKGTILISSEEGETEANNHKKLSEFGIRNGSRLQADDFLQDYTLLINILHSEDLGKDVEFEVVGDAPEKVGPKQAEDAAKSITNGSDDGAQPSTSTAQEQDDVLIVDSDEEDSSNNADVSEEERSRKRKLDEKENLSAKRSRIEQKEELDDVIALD

[14] = target: T6, SUMO-activating enzyme; assay: SUMOylation inhibitor hit validation, confirmation, SUMOylation inhibitor project, biochemical, AlphaScreen (AID 2018); assay type: functional
[15] = target: T7, Caspase-6 (Homo sapiens, UniProt P55212); assay: human caspase-6 inhibitors, dose response, biochemical, VEID-R110 fluorescence, cherry-pick (AID 720632)
T7 sequence (P55212 whole entry): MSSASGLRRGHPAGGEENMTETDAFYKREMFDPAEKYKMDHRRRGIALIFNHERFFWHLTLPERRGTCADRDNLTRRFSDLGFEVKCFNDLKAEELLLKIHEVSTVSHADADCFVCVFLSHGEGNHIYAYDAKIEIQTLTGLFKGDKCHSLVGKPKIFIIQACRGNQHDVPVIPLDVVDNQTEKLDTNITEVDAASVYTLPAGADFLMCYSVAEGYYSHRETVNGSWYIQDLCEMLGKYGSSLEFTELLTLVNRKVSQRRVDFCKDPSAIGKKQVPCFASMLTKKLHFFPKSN

[16] = target: Phospholipase A2 (Homo sapiens, UniProt P04054); assay type: functional;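 also: confirmatory dose-response counterscreen on phospholipase A2, testing hits that came from an ultra-high-throughput screen for ATG4B inhibitors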
Sequence of Phospholipase A2 (P04054 whole entry): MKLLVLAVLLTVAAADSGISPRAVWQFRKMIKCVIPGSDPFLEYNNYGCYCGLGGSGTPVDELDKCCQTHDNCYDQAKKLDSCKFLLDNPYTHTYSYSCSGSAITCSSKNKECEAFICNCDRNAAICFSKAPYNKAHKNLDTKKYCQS

[17] = target: Beta-2 adrenergic receptor (Homo sapiens, UniProt P07550); assay: beta2AR agonists driving receptor internalization, dose response, cell-based, FAP fluorogen, flow cytometry, cherry pick 1 (AID 588763); assay type: functional
Sequence of Beta-2 adrenergic receptor (P07550 whole entry): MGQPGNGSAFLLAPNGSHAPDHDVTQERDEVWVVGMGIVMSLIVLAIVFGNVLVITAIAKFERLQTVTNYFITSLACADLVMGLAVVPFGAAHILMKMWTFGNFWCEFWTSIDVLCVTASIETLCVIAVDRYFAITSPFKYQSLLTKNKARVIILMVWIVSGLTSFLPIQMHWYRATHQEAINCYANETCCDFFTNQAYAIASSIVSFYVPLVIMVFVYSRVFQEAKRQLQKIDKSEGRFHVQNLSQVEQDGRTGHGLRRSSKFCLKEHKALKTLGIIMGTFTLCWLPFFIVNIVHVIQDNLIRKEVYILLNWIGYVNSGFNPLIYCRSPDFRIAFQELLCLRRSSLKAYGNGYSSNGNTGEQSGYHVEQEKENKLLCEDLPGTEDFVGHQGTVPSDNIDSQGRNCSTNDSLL

CC(=O)Nc1cccc(-c2csc(Nc3ccc(C)cn3)n2)c1
active: IC50 [1] 12.7 µM | IC50 [2] 4.13 µM | IC50 [3] 39.7 µM | CC50 [4] > 50 µM | AC50 [5] 0.169 µM | EC50 [6] 25.8 µM | EC50 [7] 4.04 µM | IC50 [8] 17.5 µM | AC50 [9] 40 µM

CN(c1ccccc1)c1ccc(/C=C(\CCC(=O)O)c2nc3ccccc3s2)cc1[N+](=O)[O-]
active: IC50 [10] 4.31 µM | IC50 [11] 5.34 µM | IC50 [12] 2.27 µM | IC50 [13] 16.8 µM | IC50 [14] 1.65 µM | AC50 [15] 24.2 µM | IC50 [16] 5.31 µM

Cc1nc2c(C(=O)NCc3ccccc3Cl)cnn2c(O)c1Cl
active: IC50 [10] 11 µM | IC50 [16] 12.6 µM

Cc1ccc(CS(=O)(=O)c2nc3c(c(N(C)C)n2)CCCC3)cc1
active: EC50 [17] 0.0813 µM

Reference: ChEMBL document CHEMBL1201862, “PubChem BioAssay data set” (2004)
